The test system of data set [1] is IL-8. Description: IL-8 synthesis and liberation induced by lipopolysaccharide in isolated human blood mononuclear cells (IL-8 in the supernatant, sandwich enzyme immuno test). The format is cell-based. Particulars: for activity at 50 µM / activity at 100 µM: Homo sapiens, control without substance set at 100%, 37° C., 1 h, lipopolysaccharide-induced, read-out: IL-8 in the supernatant % +/- standard deviation; for activity at 50 µM: concentration 0.05 mmol/l; for activity at 100 µM: concentration 0.1 mmol/l; for effect on the IL-8 level / effect on the synthesis and liberation of cytokines from human blood cells: in words; for effect on the IL-8 level: experiments in Tab. 1. As to the method:
10 ml of freshly prepared human citrate blood were carefully underlaid with 15 ml of Lymphoprep^(R) (Molter GmbH, Heidelberg) and then centrifuged at 400 ×g for 40 min. at 20° C. The cell fraction which was visible as a white ring at the phase boundary was removed with the aid of a syringe, diluted 1:1 (v/v) with PM-16 buffer (from Serva Feinbiochemica GmbH & Co. KG, Heidelberg) and then centrifuged, as above, for 10 min. […] Using a cell counter (type IT, from Coulter Diagnostics, Krefeld), the cell suspension, which is composed of about 90% lymphocytes and 10% monocytes, was adjusted to about 5 million cells/mi. Cell viability was monitored before and after the inhibition experiments using the known lactate dehydrogenase method.
The synthesis and liberation of cellular IL-8 was induced by adding a solution of 500 ng of lipopolysaccharide (Salmonella abortus equi, Sigma GmbH, Deisenhofen) in 0.01 ml of dimethyl sulfoxide/water (1:10, v/v) to 0.48 ml of the above-described cell fraction. At the same time, a solution of leflunomide or leflunomide metabolite in 0.01 ml of dimethyl sulfoxide (for the final concentration in each case, see Tab. 1) was added to the cell fraction and the mixture was left at 37° C. for 1h in a commercially available incubator. After cooling down to 0° C., the samples were centrifuged for 1 min. in a bench centrifuge and in each case 0.025 ml aliquots of the supernatant were examined for their […] content using a "sandwich" enzyme immuno test kit (from Biermann GmbH, Bad Nauheim) in accordance with the manufacturer's instructions. The control values were determined without the addition of leflunomide or its metabolites and set at 100%.

The nature of data set [2]: Metabolism of leflunomide in the mononuclear cell test sample (HPLC). The format is in vitro ADME, human. Particulars: blood mononuclear cells; under the conditions employed; human mononuclear cell fraction; read-out: half life of metabolism of leflunomide to its metabolites (converted).
In data set [3] the test system is mononuclear cells. The data set is described as above. The format is in vitro ADME, human. Particulars: in words; under the experimental conditions employed.

The term half-life denotes the time needed for the level to fall by half in the phase considered.

Molecules are shown by their SMILES.

Regarding `Cc1oncc1C(=O)Nc1ccc(C(F)(F)F)cc1` [Leflunomide, N-(4-trifluoromethylphenyl)-5-methylisoxazole-4-carboxamide], in data set [1], the activity at 50 µM worked out at 83%; the activity at 100 µM was 61 ± 11%; the “effect on the IL-8 level” value is “IL-8 level is clearly lowered”; the “effect on the synthesis and liberation of cytokines from human blood cells” value is “strong inhibitory effect”. Further, the half-life in data set [2] is approximately 10 h. Further, in data set [3], the metabolism of leflunomide entry is reported as “no appreciable metabolism”.
Turning to `C/C(O)=C(\C#N)C(=O)Nc1ccc(C(F)(F)F)cc1` [Leflunomide metabolite, N-(4-trifluoromethylphenyl)-2-cyano-3-hydroxycrotonamide], in data set [1], the activity at 50 µM was 97%; the activity at 100 µM was determined as 99%; the “effect on the IL-8 level” value was “practically no effect on the IL-8 level”; the “effect on the synthesis and liberation of cytokines from human blood cells” value is reported as “does not exhibit this advantageous effect”.

These data come from patent US5547971A, “Use of leflunomide for inhibiting interleukin 8” (priority 1993, dated 1996).
